# Assay results: patent US20250035641A1, “COMPOSITIONS AND METHODS RELATED TO PROTEIN LABELING” (The Chinese University of Hong Kong, priority 2023, published 2025)
# Columns and labels:
# Format in all cases: cell-based
# HTN-BRD4 [1] = molecular target: T1, HTN-BRD4 (Homo sapiens, UniProt O60885+P62942, F37V); test: IP-WB of HTN-BRD4 O-GlcNAcylation with truncated 0tfOGT; conditions: 0tfOGT:HTN-BRD4 system, 4 h
# T1 construct: HaloTag fragment; expressed in transfected cells; host or cells: HEK293T
# Method: FIGS. 7A-7E: Specificity and reversibility of OGTAC strategy. […] (B), Constructs of fOGT with 13.5 (rounded to 13) TPR and 0TPR-fOGT (0tfOGT). (C). […] (D), Dose-dependent O-GlcNAcylation profile of HTN-BRD4 by OGTAC-4 treatment. HEK293T cells expressing HTN-BRD4:0tfOGT=1:0.05 were treated with an increasing concentration of OGTAC-4 for 4 h. Then, the O-GlcNAcylation level of HTN-BRD4 was assessed by immunoblot after IP using BRD4 antibody. All quantifications are shown as mean±s.e.m. of n=3 biologically independent experiments. (E), Reversible effect of OGTAC-4 on HTN-BRD4 can be achieved by addition of AP1867. HEK293T cells expressing HTN-BRD4:0tfOGT=1:0.05 were pretreated with OGTAC-4 (500 nM) or DMSO for 4 h, and culturing media were replaced by fresh media with DMSO or AP1867 (50 μM) for the indicated time. The quantifications in right panel were conducted by the normalizing the fold-change (OGTAC-4/DMSO) for each post-washout time point to the value of 4 h pre-treatment. All quantifications are shown as mean±s.e.m. of 3 independent biological repeats. Statistical significance was calculated with ordinary one-way ANOVA comparing samples with different transfection conditions or OGTAC-treatment. ns, p≥0.05; *p<0.05; **p<0.01; ***p<0.001; ****p<0.0001.
# We next applied OGTAC-4 to the 0tfOGT:HTN-BRD4 system, resulting in an 5-fold increase in O-GlcNAc level on BRD4. […]
# HTN-BRD4 [2] = molecular target: T2, HTN-BRD4 (Homo sapiens, UniProt O60885); test: Pulse-chase assay (HTN-BRD4 engagement in cells); conditions: 5 μM, within 15 mins treatment, HEK293T HTN-BRD4:fOGT 20:1
# T2 construct: HaloTag fragment; expressed in transfected cells; host or cells: HEK293T
# Method: For HTN-BRD4, as the OGTAC-1 to 3 were designed to be irreversibly linked to it, we developed a pulse-chase assay. […] All of three OGTACs efficiently reached HTN-BRD4, fully occupied the protein within 4 h. OGTAC 1 ranked first among three OGTACs, achieving […] 90% engagement within 15 mins treatment.
# 1×10^5 HEK293T cells were seeded in each well of 12 well plate. After cells attached, transfection reagents and plasmids were prepared and added in DMEM. After 24 h transfection, media were replaced by fresh warm complete media with DMSO or compounds. After certain time of OGTACs treatment, media in wells were replaced by fresh warm media with 5 μM rhodamine ligand. The cells were incubated in 37° C.′ for 15 mins. Then, media were aspirated and 100 μL IP lysis buffer (Thermo Scientific 87788) supplemented with 20 μM OGA inhibitor (Thiamet G, Bidepharm BD571819) and 100X protease inhibitor (MedChemExpress. HY-K0010) (referred as complete IP lysis buffer in the later paragraph) was added to each well. The lysate was incubated on ice for 20 min, spun down at 14,000 RPM at 4° C. for 15 mins, and the supernatant were collected for bicinchoninic acid (BCA) assay and normalized to a final 2 mg/mL. […] After running, in gel fluorescence at rhodamine channel (545/575 nm) was analysed by Bio-Rad ChemiDoc MP Imaging System. […]
# HTN-CK2α = HTN-CK2α (Homo sapiens, UniProt P68400); test: Immunoblot of HTN-CK2α O-GlcNAcylation in HeLa cells; conditions: 125 nM, 8 h
# Method: FIG. 12: Immunoblotting analysis of effects of OGTAC-1 on HTN-CK2αin HeLa cell line. HeLa cells were transfected with fOGT:HTN-CK2α=1:0.1 for 24 h, followed by treatment of OGTAC-1 (125 nM) or other probes for 8 h. For OGTAC-1H, ‘++’ denotes 10-fold concentration of OGTAC-1, while “+” denote the same concentration of OGTAC-1. The quantification was conducted by immunoblot signal of RL2 relative to CK2α. as the mean±s.e.m. of n=3 biologically independent experiments. Statistical significance was calculated by unpaired t-tests.
# S347 is a well-defined O-GlcNAcylation site on CK2α, while S348 is the potential alternative site as it is adjacent to S347. To verify the O-GlcNAc sites induced by OGTAC-1 in HTN-CK2α. we constructed HTN-CK2α plasmids with S347A and S347A/S348A mutations. […] Collectively, these findings support the physiological relevance of O-GlcNAcylation induced by OGTAC-1.
# T1 sequence (P62942 whole entry F37V, stated change not applied, other chains not shown, the tested form may be a part): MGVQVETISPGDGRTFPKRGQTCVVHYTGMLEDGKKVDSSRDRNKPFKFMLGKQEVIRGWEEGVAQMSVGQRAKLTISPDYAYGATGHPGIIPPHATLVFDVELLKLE
# HTN-CK2α, sequence (P68400 with tags, fused parts or gaps): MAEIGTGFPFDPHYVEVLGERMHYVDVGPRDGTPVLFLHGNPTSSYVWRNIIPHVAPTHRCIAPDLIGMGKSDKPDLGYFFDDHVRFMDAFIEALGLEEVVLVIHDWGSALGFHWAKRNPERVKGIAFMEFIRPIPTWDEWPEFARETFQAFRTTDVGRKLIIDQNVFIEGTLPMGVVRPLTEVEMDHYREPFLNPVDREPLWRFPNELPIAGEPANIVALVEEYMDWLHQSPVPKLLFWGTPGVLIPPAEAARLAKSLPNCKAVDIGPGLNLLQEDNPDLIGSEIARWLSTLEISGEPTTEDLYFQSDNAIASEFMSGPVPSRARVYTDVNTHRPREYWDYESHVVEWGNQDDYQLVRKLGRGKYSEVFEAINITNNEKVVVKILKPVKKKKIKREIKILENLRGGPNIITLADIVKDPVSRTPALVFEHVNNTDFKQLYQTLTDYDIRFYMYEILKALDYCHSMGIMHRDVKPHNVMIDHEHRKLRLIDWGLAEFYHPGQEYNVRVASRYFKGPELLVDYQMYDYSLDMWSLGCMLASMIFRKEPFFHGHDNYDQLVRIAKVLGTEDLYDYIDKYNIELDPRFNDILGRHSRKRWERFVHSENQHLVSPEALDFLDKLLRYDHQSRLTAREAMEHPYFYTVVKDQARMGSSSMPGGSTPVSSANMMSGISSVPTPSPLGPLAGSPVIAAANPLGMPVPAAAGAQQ
# HTN-CK2α, sequence (P62942+O15294 fused P62942:F37V partner): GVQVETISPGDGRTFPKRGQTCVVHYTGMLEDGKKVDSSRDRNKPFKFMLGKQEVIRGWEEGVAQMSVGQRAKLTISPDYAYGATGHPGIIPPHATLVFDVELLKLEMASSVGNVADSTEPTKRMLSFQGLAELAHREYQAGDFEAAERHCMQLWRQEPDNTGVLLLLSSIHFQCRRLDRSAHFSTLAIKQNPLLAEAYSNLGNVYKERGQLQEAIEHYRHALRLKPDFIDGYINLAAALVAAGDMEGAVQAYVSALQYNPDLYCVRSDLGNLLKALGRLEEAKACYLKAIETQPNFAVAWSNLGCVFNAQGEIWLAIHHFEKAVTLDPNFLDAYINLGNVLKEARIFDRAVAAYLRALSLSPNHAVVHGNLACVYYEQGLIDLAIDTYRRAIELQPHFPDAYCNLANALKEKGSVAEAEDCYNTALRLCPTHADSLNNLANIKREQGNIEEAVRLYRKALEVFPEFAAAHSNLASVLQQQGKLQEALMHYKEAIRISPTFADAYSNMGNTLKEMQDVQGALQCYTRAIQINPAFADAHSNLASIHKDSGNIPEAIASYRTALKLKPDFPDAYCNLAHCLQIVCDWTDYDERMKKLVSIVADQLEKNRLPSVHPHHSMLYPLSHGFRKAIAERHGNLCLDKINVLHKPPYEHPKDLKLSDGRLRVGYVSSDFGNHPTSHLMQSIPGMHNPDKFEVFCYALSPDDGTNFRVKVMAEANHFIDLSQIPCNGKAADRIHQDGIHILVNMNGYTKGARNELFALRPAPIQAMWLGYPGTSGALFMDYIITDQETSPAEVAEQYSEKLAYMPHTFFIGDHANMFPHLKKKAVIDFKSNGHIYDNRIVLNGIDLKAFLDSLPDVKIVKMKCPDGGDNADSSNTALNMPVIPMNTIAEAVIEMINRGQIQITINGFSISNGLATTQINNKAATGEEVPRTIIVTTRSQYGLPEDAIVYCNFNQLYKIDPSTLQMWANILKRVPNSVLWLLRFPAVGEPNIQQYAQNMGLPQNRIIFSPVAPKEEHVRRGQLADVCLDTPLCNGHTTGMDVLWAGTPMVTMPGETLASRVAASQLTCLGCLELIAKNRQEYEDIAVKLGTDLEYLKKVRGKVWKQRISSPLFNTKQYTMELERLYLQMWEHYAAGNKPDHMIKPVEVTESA
fold increase in O-GlcNAc level on BRD4 (HTN-BRD4 [1]),engagement of HTN-BRD4 (HTN-BRD4 [2]),effect on HTN-CK2α in HeLa cells (HTN-CK2α),SMILES
5 fold,,,"CC[C@H](C(=O)N1CCCC[C@H]1C(=O)O[C@H](CCc1ccc(OC)c(OC)c1)c1cccc(OCC(=O)NCCCCCCNC(=O)C[C@@H]2N=C(c3ccc(Cl)cc3)c3c(sc(C)c3C)-n3c(C)nnc32)c1)c1cc(OC)c(OC)c(OC)c1 [OGTAC-4, (R)-1-(3-(2-((6-(2-((S)-4-(4-chlorophenyl)-2,3,9-trimethyl-6H-thieno[3,2-f[]8 1,2,4]triazolo[4,3-a][1,4]diazepin-6-yl)acetamido)hexyl)amino)-2-oxoethoxy)phenyl)-3-(3,4-dimethoxyphenyl)propyl (S)-1-((S)-2-(3,4,5-trimethoxyphenyl)butanoyl)piperidine-2-carboxylate]"
,90%,confirmed the effect,"CC[C@H](C(=O)N1CCCC[C@H]1C(=O)O[C@H](CCc1ccc(OC)c(OC)c1)c1cccc(OCC(=O)NCCOCCOCCCCCCCl)c1)c1cc(OC)c(OC)c(OC)c1 [OGTAC-1, (R)-1-(3-(2-((2-(2-((6-chlorohexyl)oxy)ethoxy)ethyl)amino)-2-oxoethoxy)phenyl)-3-(3,4-dimethoxyphenyl)propyl (S)-1-((S)-2-(3,4,5-trimethoxyphenyl)butanoyl) piperidine-2-carboxylate]"
